In experiment [1] the test system is SW48 (human colon cancer cells). Description: inhibition of SW48 cell proliferation (CellTiter Glo). The following applies: NTSR1 targeted compound; 72 hrs; read-out: SW-48 proliferation IC50. The format is cell-based. The method in brief: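 Cells plated at 5,000/well and grown 24 hrs were exposed to conjugates for 72 hrs at 37° C, 5% CO2, in a ten-point three-fold series starting at 10 μM; vehicle was 0.01% DMSO. Proliferation was read by CellTiter Glo. % inhibition was taken relative to vehicle, with IC50 from four-parameter nonlinear regression.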
In general terms: ATP-based viability assays read luminescence as a measure of living cells.

The target of the next experiment is T1, human NTSR1 (Homo sapiens, UniProt P30989).
T1 construct: host or cells: HEK-293 cells (membrane preparations)
T1 sequence (P30989 whole entry): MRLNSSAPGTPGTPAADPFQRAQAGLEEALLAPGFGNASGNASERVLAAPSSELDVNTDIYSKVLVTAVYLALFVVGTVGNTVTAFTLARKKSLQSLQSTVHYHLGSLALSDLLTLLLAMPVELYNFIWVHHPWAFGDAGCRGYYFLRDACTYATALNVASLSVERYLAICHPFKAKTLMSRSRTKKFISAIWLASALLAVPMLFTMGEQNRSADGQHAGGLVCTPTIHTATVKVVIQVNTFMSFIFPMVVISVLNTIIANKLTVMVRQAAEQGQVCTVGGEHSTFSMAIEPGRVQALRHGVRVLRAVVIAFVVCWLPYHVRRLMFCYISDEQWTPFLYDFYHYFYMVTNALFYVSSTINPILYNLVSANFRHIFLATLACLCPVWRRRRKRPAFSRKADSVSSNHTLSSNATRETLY
The experiment in a line: radioligand-receptor binding assay, [125I] labeled neurotensin (Eurofins Panlabs). The following applies: [125I] neurotensin 0.02 nM, membranes from NTSR1 expressing HEK-293 cells, 45 minute incubation, Cheng and Prusoff; read-out: NTSR1 binding Ki. The method, then:
Conjugates were assessed in an in vitro assay evaluating binding to NTSR1. A radioligand-receptor binding assay was conducted at Eurofins Panlabs (Taiwan) to determine the affinity of conjugates described herein to NTSR1. The assay measures binding of radiolabeled ligand, [^125I] labeled neurotensin, to human NTSR1 using membrane preparations from NTSR1 expressing HEK-293 cells (Human embryonic kidney cells 293). Membranes were incubated with radiolabeled neurotensin (0.02 nM) in the presence of conjugate/compound starting at a dose of either 100 nM, or 10 nM, using 3× serial dilutions to obtain a 6-pt curve. After a 45 minute incubation, membranes were filtered and washed 3× and counted to determine the remaining [^125I] neurotensin bound to the receptor. IC50 values were determined by a non-linear, least squares regression analysis using MathIQ™ (ID Business Solutions Ltd., UK). The Ki values were calculated using the equation of Cheng and Prusoff (Cheng and Prusoff, Biochem. Pharmacol. 22:3099-3108, 1973) using the observed IC50 of the tested conjugate/compound, the concentration of radioligand employed in the assay, and the historical values for the Kd of the ligand obtained at Eurofins.

Square brackets hold non-standard residues; d marks the D form. Peptide text beside a SMILES is read from it. * marks the point of attachment. X2 = COc1cc2cc(c1Cl)N(C)C(=O)C[C@H](OC(=O)[C@H](C)N(C)C(=O)CCS*)[C@]1(C)O[C@H]1[C@H](C)[C@@H]1C[C@@](O)(NC(=O)O1)[C@H](OC)/C=C/C=C(\C)C2; Pen = CC(C)(S)[C@H](N)C(=O)O; Tle = CC(C)(C)[C@H](N)C(=O)O A value given as a limit tells only on which side of the number the result lay.

For orientation: Ki means the equilibrium dissociation constant of an inhibitor or competing ligand from its target. Regarding `CO[C@H]1C(=O)[C@]2(C)[C@@H](OC)C[C@H]3OC[C@@]3(OC(C)=O)[C@H]2[C@H](OC(=O)c2ccccc2)[C@]2(O)C[C@H](OC(=O)[C@H](OC(=O)CCCCCN3C(=O)CC(SC(C)(C)[C@H](NC(C)=O)C(=O)N4CCC[C@H]4C(=O)N[C@@H](CCCNC(=N)N)C(=O)N[C@@H](CCCNC(=N)N)C(=O)N4CCC[C@H]4C(=O)N[C@@H](Cc4ccc(O)cc4)C(=O)N[C@H](C(=O)N[C@@H](CC(C)C)C(=O)O)C(C)(C)C)C3=O)[C@@H](NC(=O)OC(C)(C)C)c3ccccc3)C(C)=C1C2(C)C` (stereo partly shown) [Compound 4], the IC50 in experiment [1] stood at 138 nM. Moreover, at human NTSR1, the Ki was found to be 2.06 nM. The matching figures for `COc1cc2cc(c1Cl)N(C)C(=O)C[C@H](OC(=O)[C@H](C)N(C)C(=O)CCSSC(C)(C)[C@H](NC(C)=O)C(=O)N1CCC[C@H]1C(=O)N[C@@H](CCCNC(=N)N)C(=O)N[C@@H](CCCNC(=N)N)C(=O)N1CCC[C@H]1C(=O)N[C@@H](Cc1ccc(O)cc1)C(=O)N[C@H](C(=O)N[C@@H](CC(C)C)C(=O)O)C(C)(C)C)[C@]1(C)O[C@H]1[C@H](C)[C@@H]1C[C@@](O)(NC(=O)O1)[C@H](OC)/C=C/C=C(\C)C2` [Compound 12] (Ac-[Pen](X2)PRRPY[Tle]L-OH): 15 nM and 1.03 nM. The matching figures for `COc1cc2cc(c1Cl)N(C)C(=O)C[C@H](OC(=O)[C@H](C)N(C)C(=O)CCSC1CC(=O)N(CCCNC(=O)CNC(=O)[C@H](CC(C)C)NC(=O)[C@H](Cc3ccccc3)NC(=O)CNC(=O)CCCCCN3C(=O)CC(SC(C)(C)[C@H](NC(C)=O)C(=O)N4CCC[C@H]4C(=O)N[C@@H](CCCNC(=N)N)C(=O)N[C@@H](CCCNC(=N)N)C(=O)N4CCC[C@H]4C(=O)N[C@@H](Cc4ccc(O)cc4)C(=O)N[C@H](C(=O)N[C@@H](CC(C)C)C(=O)O)C(C)(C)C)C3=O)C1=O)[C@]1(C)O[C@H]1[C@H](C)[C@@H]1C[C@@](O)(NC(=O)O1)[C@H](OC)/C=C/C=C(\C)C2` (stereo partly shown) [Compound 16]: 15 nM and 1.64 nM.

As to `COc1cc2cc(c1Cl)N(C)C(=O)C[C@H](OC(=O)[C@H](C)N(C)C(=O)CCSC1CC(=O)N(CCCNC(=O)CNC(=O)[C@H](CC(C)C)NC(=O)[C@H](Cc3ccccc3)NC(=O)CNC(=O)CCCCCN3C(=O)CC(SC(C)(C)[C@H](NC(C)=O)C(=O)N4CCC[C@H]4C(=O)N[C@@H](CCCNC(=N)N)C(=O)N(C)[C@@H](CCCNC(=N)N)C(=O)N4CCC[C@H]4C(=O)N[C@@H](Cc4ccc(O)cc4)C(=O)N[C@H](C(=O)N[C@@H](CC(C)C)C(=O)O)C(C)(C)C)C3=O)C1=O)[C@]1(C)O[C@H]1[C@H](C)[C@@H]1C[C@@](O)(NC(=O)O1)[C@H](OC)/C=C/C=C(\C)C2` (stereo partly shown) [Compound 17], the IC50 in experiment [1] is 3.9 nM. Besides, on human NTSR1, the Ki turned out to be 10.6 nM. Regarding `COc1cc2cc(c1Cl)N(C)C(=O)C[C@H](OC(=O)[C@H](C)N(C)C(=O)CCSC1CC(=O)N(CCCNC(=O)CNC(=O)[C@H](CC(C)C)NC(=O)[C@H](Cc3ccccc3)NC(=O)CNC(=O)CCCCCN3C(=O)CC(SC(C)(C)[C@H](NC(C)=O)C(=O)N4CCC[C@H]4C(=O)N[C@@H](CCCNC(=N)N)C(=O)N(C)[C@@H](CCCNC(=N)N)C(=O)N4CCC[C@H]4C(=O)N[C@H](Cc4ccc(O)cc4)C(=O)N[C@H](C(=O)N[C@@H](CC(C)C)C(=O)O)C(C)(C)C)C3=O)C1=O)[C@]1(C)O[C@H]1[C@H](C)[C@@H]1C[C@@](O)(NC(=O)O1)[C@H](OC)/C=C/C=C(\C)C2` (stereo partly shown) [Compound 18], the IC50 in experiment [1] amounted to 36 nM. In addition, the Ki on human NTSR1 is above 100 nM. The like results for `COc1cc2cc(c1Cl)N(C)C(=O)C[C@H](OC(=O)[C@H](C)N(C)C(=O)CCSC1CC(=O)N(CCCNC(=O)CNC(=O)[C@H](CC(C)C)NC(=O)[C@H](Cc3ccccc3)NC(=O)CNC(=O)CCCCCN3C(=O)CC(SC(C)(C)[C@H](NC(C)=O)C(=O)N4CCC[C@H]4C(=O)N[C@@H](CCCNC(=N)N)C(=O)N(C)[C@@H](CCCNC(=N)N)C(=O)N4CCC[C@H]4C(=O)N[C@@H](Cc4c[nH]c5ccccc45)C(=O)N[C@H](C(=O)N[C@@H](CC(C)C)C(=O)O)C(C)(C)C)C3=O)C1=O)[C@]1(C)O[C@H]1[C@H](C)[C@@H]1C[C@@](O)(NC(=O)O1)[C@H](OC)/C=C/C=C(\C)C2` (stereo partly shown) [Compound 19] were, in that order, 6.3 nM and above 100 nM. `CC[C@H](C)[C@H](NC(=O)[C@H](Cc1ccc(OC)c(OC)c1)NC(=O)[C@@H]1CCCN1C(=O)[C@H](CCCNC(=N)N)NC(=O)[C@@H](CCCNC(=N)N)NC(=O)[C@@H]1CCCN1C(=O)[C@H](CCCCNC(=O)CCSC1CC(=O)N(CCCCCC(=O)NCC(=O)N[C@@H](Cc2ccccc2)C(=O)N[C@@H](CC(C)C)C(=O)NCC(=O)NCCCN2C(=O)CC(SCCC(=O)N(C)[C@@H](C)C(=O)O[C@H]3CC(=O)N(C)c4cc(cc(OC)c4Cl)C/C(C)=C/C=C/[C@@H](OC)[C@@]4(O)C[C@H](OC(=O)N4)[C@@H](C)[C@@H]4O[C@@]34C)C2=O)C1=O)NC(C)=O)C(=O)N[C@@H](C[Si](C)(C)C)C(=O)O` (stereo partly shown) [Compound 46]: the Ki at human NTSR1 was above 10 nM. As for `CC[C@H](C)[C@H](NC(=O)[C@H](Cc1ccc(Cl)c(Cl)c1)NC(=O)[C@@H]1CCCN1C(=O)[C@H](CCCNC(=N)N)NC(=O)[C@@H](CCCNC(=N)N)NC(=O)[C@@H]1CCCN1C(=O)[C@H](CCCCNC(=O)CCSC1CC(=O)N(CCCCCC(=O)NCC(=O)N[C@@H](Cc2ccccc2)C(=O)N[C@@H](CC(C)C)C(=O)NCC(=O)NCCCN2C(=O)CC(SCCC(=O)N(C)[C@@H](C)C(=O)O[C@H]3CC(=O)N(C)c4cc(cc(OC)c4Cl)C/C(C)=C/C=C/[C@@H](OC)[C@@]4(O)C[C@H](OC(=O)N4)[C@@H](C)[C@@H]4O[C@@]34C)C2=O)C1=O)NC(C)=O)C(=O)N[C@@H](C[Si](C)(C)C)C(=O)O` (stereo partly shown) [Compound 47], the Ki on human NTSR1 was above 10 nM. Consider `COc1cc2cc(c1Cl)N(C)C(=O)C[C@H](OC(=O)[C@H](C)N(C)C(=O)CCSC1CC(=O)N(CCCNC(=O)CNC(=O)[C@H](CC(C)C)NC(=O)[C@H](Cc3ccccc3)NC(=O)CNC(=O)CCCCCN3C(=O)CC(SCCC(=O)NCCCC[C@H](NC(C)=O)C(=O)N4CCC[C@H]4C(=O)N[C@@H](CCCCN)C(=O)N[C@@H](CCCCN)C(=O)N4CCC[C@H]4C(=O)N[C@@H](Cc4ccc(O)cc4)C(=O)N[C@@H](C[Si](C)(C)C)C(=O)N[C@@H](C[Si](C)(C)C)C(=O)O)C3=O)C1=O)[C@]1(C)O[C@H]1[C@H](C)[C@@H]1C[C@@](O)(NC(=O)O1)[C@H](OC)/C=C/C=C(\C)C2` (stereo partly shown) [Compound 48], for which, at human NTSR1, the Ki was above 10 nM.

Regarding `COc1cc2cc(c1Cl)N(C)C(=O)C[C@H](OC(=O)[C@H](C)N(C)C(=O)CCSC1CC(=O)N(CCCNC(=O)CNC(=O)[C@H](CC(C)C)NC(=O)[C@H](Cc3ccccc3)NC(=O)CNC(=O)CCCCCN3C(=O)CC(SCCC(=O)NCCCC[C@H](NC(=O)c4ccc(N=[N+]=[N-])cc4)C(=O)N4CCC[C@H]4C(=O)N(C)[C@@H](CCCNC(=N)N)C(=O)N[C@@H](CCCNC(=N)N)C(=O)N4CCC[C@H]4C(=O)N[C@@H](Cc4ccc(O)cc4)C(=O)N[C@H](C(=O)N[C@@H](CC(C)C)C(=O)O)C(C)(C)C)C3=O)C1=O)[C@]1(C)O[C@H]1[C@H](C)[C@@H]1C[C@@](O)(NC(=O)O1)[C@H](OC)/C=C/C=C(\C)C2` (stereo partly shown) [Compound 49], the inhibitory constant (Ki) on human NTSR1 was determined as 0.18 nM.

Source of the values: patent US20200078468A1, “NEUROTENSIN RECEPTOR BINDING CONJUGATES AND FORMULATIONS THEREOF” (priority 2016, published 2020).
